Reference: article PMC7504092, “Synthesis and Antiplasmodial Evaluation of 4-Carboxamido- and 4-Alkoxy-2-Trichloromethyl Quinazolines” (Molecules, 2020)
Where two headings read alike, the source gives them in different places.

What was measured:
W2 P. falciparum = test system: W2 P. falciparum; set-up: method as in PMID 21741131; details: W2 strain; cited from earlier work
HepG2 cell line = test system: HepG2 cell line; set-up: method as in earlier work; details: previously described compounds; ref 9 (A), 10 (B), 11 (C), 12 (series D); read-out: Cytotoxicity CC50 HepG2; cited from earlier work
K1 P. falciparum strain [1] = details: previously described compounds; ref 9 (A), 10 (B), 11 (C), 12 (series D); read-out: Antiplasmodial activity EC50 P. falciparum K1; cited from earlier work
[2] = Solubility of the tested molecule in the culture medium; assay type: physicochemical; details: culture medium of the cytotoxicity test
Procedure: HepG2 cell line was maintained at 37 °C, 5% CO2, at 90% humidity in […] supplemented with 10% fetal bovine serum, 1% L-glutamine (200 mM) and penicillin (100 U/mL)/streptomycin (100 µg/mL) (complete RPMI medium). The cytotoxicity of the tested molecules on the HepG2 (hepatocarcinoma cell line purchased from ATCC, ref HB-8065) cell line was assessed according to the method of Mosmann with slight modifications. Briefly, 5.10^3 cells in 100 µL of complete medium were inoculated into each well of 96-well plates and incubated at 37 °C in humidified 5% CO2. After 24 h incubation, 100 μL of medium with various product concentrations dissolved in DMSO (final concentration less than 0.5% v/v) were added and the plates were incubated for 72 h at 37 °C. Triplicate assays were performed for each sample. Each plate-well was then microscope-examined for possible precipitate formation before the medium was aspirated from the wells. 100 μL of MTT (3-(4,5-dimethyl-2-thiazolyl)-2,5-diphenyl-2H-tetrazolium bromide) solution (0.5 mg/mL in medium without FBS) were then added to each well. Cells were incubated for 2 h at 37 °C. After this time, the MTT solution was removed and DMSO (100 μL) was added to dissolve the resulting blue formazan crystals. Plates were shaken vigorously (700 rpm) for 10 min. The absorbance was measured at 570 nm with 630 nm as reference wavelength using a BIO-TEK ELx808 Absorbance Microplate Reader (LabX, Midland, ON, Canada). DMSO was used as blank and doxorubicin (purchased from Sigma Aldrich) as positive control. Cell viability was calculated as percentage of control (cells incubated without compound). […] CC50 values represent the mean value calculated from three independent experiments.

K1 P. falciparum strain [3] = test: In vitro antiplasmodial evaluation (SYBR Green I fluorescence-based method); assay type: cell-based; details: for SI (selectivity index = CC50/EC50): CC50 HepG2 / EC50 PfK1; for EC50: multi-resistant K1 P. falciparum strain, 72 h incubation, read-out: PfK1 EC50
Procedure: It was maintained in continuous culture as described previously by Trager and Jensen. […] Parasitemia was maintained daily at between 1 and 3%. The P. falciparum drug susceptibility test was carried out by comparing quantities of DNA in treated and control cultures of parasite in human erythrocytes according to an SYBR Green I fluorescence-based method using a 96-well fluorescence plate reader. […] Duplicate assays were performed for each sample. After incubation, plates were frozen at -20 °C for 24 h. […] Fifteen μL of each sample were transferred to 96-well flat bottom non-sterile black plates (Greiner Bio-one) already containing 15 μL of the SYBR Green I lysis buffer (2X SYBR Green I, 20 mM Tris base pH 7.5, 20 mM EDTA, 0.008% w/v saponin, 0.08% w/v Triton X-100).

[4] = In vitro cytotoxicity evaluation (MTT); assay type: cell-based; details: human
Procedure: Triplicate assays were performed for each sample. Each plate-well was then microscope-examined for possible precipitate formation before the medium was aspirated from the wells. 100 μL of MTT (3-(4,5-dimethyl-2-thiazolyl)-2,5-diphenyl-2H-tetrazolium bromide) solution (0.5 mg/mL in medium without FBS) were then added to each well. […] After this time, the MTT solution was removed and DMSO (100 μL) was added to dissolve the resulting blue formazan crystals. Plates were shaken vigorously (700 rpm) for 10 min. The absorbance was measured at 570 nm with 630 nm as reference wavelength using a BIO-TEK ELx808 Absorbance Microplate Reader (LabX, Midland, ON, Canada). DMSO was used as blank and doxorubicin (purchased from Sigma Aldrich) as positive control. Cell viability was calculated as percentage of control (cells incubated without compound). […] CC50 values represent the mean value calculated from three independent experiments.

[5] = Plasmodium falciparum, K1, 72 h

Row | EC50 (K1 P. falciparum strain [3]; [5]) [µM] | melting point [°C] | SMILES | SI (selectivity index = CC50/EC50) (K1 P. falciparum strain [3]) | CC50 at 72 h [4] [µM] | further results
1 | 3.5 | 39 | CCCOc1nc(C(Cl)(Cl)Cl)nc2ccccc12 [Molecule 28, 4-Propoxy-2-Trichloromethylquinazoline] | 15 | 54.8 | 
2 | > 10 | 210 | CC(C)Oc1nc(C(Cl)(Cl)Cl)nc2ccccc12 [Molecule 30, 4-Isopropoxy-2-Trichloromethylquinazoline] | <10 | 102 | activity against P. falciparum (in words) (K1 P. falciparum strain [3]; K1 strain): inactive
3 | 3.4 | 62 | C#CCOc1nc(C(Cl)(Cl)Cl)nc2ccccc12 [Molecule 31, 4-(Prop-2-ynyloxy)-2-Trichloromethylquinazoline] | 14.6 | 49.6 | 
4 | > 10 | 92 | C#CC(C)Oc1nc(C(Cl)(Cl)Cl)nc2ccccc12 (centres unmarked) [Molecule 32, 4-(But-3-yn-2-yloxy)-2-Trichloromethylquinazoline] | <4.5 | 45 | 
5 | > 10 | 96 | C#CC(Oc1nc(C(Cl)(Cl)Cl)nc2ccccc12)C(C)C (centres unmarked) [Molecule 33, 4-(4-Methylpent-1-yn-3-yloxy)-2-Trichloromethylquinazoline] | <3 | 30.6 | 
6 | 10 | 93 | OCCOc1nc(C(Cl)(Cl)Cl)nc2ccccc12 [Molecule 34, 2-(2-Trichloromethylquinazolin-4-yloxy)ethanol] | 0.8 | 7.9 | 
7 | 2.3 | 63 | COCCOc1nc(C(Cl)(Cl)Cl)nc2ccccc12 [Molecule 35, 4-(2-Methoxyethoxy)-2-Trichloromethylquinazoline] | 23.1 | 53.2 | 
8 | 2.2 | 54 | ClCCOc1nc(C(Cl)(Cl)Cl)nc2ccccc12 [Molecule 36, 4-(2-Chloroethoxy)-2-Trichloromethylquinazoline] | >28 | > 62.5 | 
9 | 4.2 | 77 | ClCCCOc1nc(C(Cl)(Cl)Cl)nc2ccccc12 [Molecule 37, 4-(3-Chloropropoxy)-2-Trichloromethylquinazoline] | 14.4 | 60.4 | 
10 | 8 | 73 | FCCOc1nc(C(Cl)(Cl)Cl)nc2ccccc12 [Molecule 39, 4-(2-Fluoroethoxy)-2-Trichloromethylquinazoline] | 3.7 | 29.5 | 
11 | 2.2 | 100 | ClC(Cl)(Cl)c1nc(OCCBr)c2ccccc2n1 [Molecule 40, 4-(2-Bromoethoxy)-2-Trichloromethylquinazoline] | >28 | > 62.5 | 
12 |  | 137 | CCN(CC)CCOc1nc(C(Cl)(Cl)Cl)nc2ccccc12 [Molecule 41, N,N-Diethyl-2-[(2-Trichloromethylquinazolin-4-yl)oxy]ethanamine] |  | 32.3 | IC50 (K1 P. falciparum strain [3]; Plasmodium falciparum, K1, Figures 2 and 3, read-out: IC50 P. falci. K1): 0.9 µM
13 | 3.3 | 135 | CC(=O)NCCOc1nc(C(Cl)(Cl)Cl)nc2ccccc12 [Molecule 42, N-{2-[(2-Trichloromethylquinazolin-4-yl)oxy]ethyl}acetamide] | >30 | > 99.7 | 

Continued, molecule first:

Row | SMILES | EC50 (K1 P. falciparum strain [3]; [5]) [µM] | melting point [°C] | SI (selectivity index = CC50/EC50) (K1 P. falciparum strain [3]) | CC50 at 72 h [4] [µM] | further results
14 | Oc1nc(C(Cl)(Cl)Cl)nc2ccccc12 [2-(trichloromethyl)quinazolin-4-ol] |  |  |  |  | activity against W2 P. falciparum (in words) (W2 P. falciparum): not active
15 | Fc1ccc(-c2nc(C(Cl)(Cl)Cl)nc3ccccc23)cc1 [A, 4-(4′-fluorophenyl)-2-trichloromethylquinazoline] |  |  |  |  | CC50 (HepG2 cell line): > 125 µM; EC50 (K1 P. falciparum strain [1]): 2.5 µM
16 | O=[N+]([O-])c1ccc(COc2nc(C(Cl)(Cl)Cl)nc3ccccc23)cc1 [C] |  |  |  |  | CC50 (HepG2 cell line): 19.4 µM; EC50 (K1 P. falciparum strain [1]): 1.8 µM
17 | O=C(Nc1nc(C(Cl)(Cl)Cl)nc2ccccc12)c1ccccc1[N+](=O)[O-] [Molecule 8, 2-Nitro-N-(2-Trichloromethylquinazolin-4-yl)benzamide] | 3 | 257 | >5.2 | > 15.6 | solubility (in words) [2]: lack of solubility
18 | O=C(Nc1nc(C(Cl)(Cl)Cl)nc2ccccc12)c1ccccc1F [Molecule 11, 2-Fluoro-N-(2-Trichloromethylquinazolin-4-yl)benzamide] | 5.23 |  |  | > 15.6 | solubility (in words) [2]: lack of solubility
19 | O=C(Nc1nc(C(Cl)(Cl)Cl)nc2ccccc12)c1ccccn1 [Molecule 17, N-(2-Trichloromethylquinazolin-4-yl)picolinamide] | 14.5 | 214 | >0.5 | > 7.8 | solubility (in words) [2]: lack of solubility
20 | CC(=O)Nc1nc(C(Cl)(Cl)Cl)nc2ccccc12 [Molecule 20, N-(2-Trichloromethylquinazolin-4-yl)acetamide] | > 10 | 217 |  | 31.2 | solubility (in words) [2]: lack of solubility
21 | CCC(=O)Nc1nc(C(Cl)(Cl)Cl)nc2ccccc12 [Molecule 21, N-(2-Trichloromethylquinazolin-4-yl)propionamide] | 4.9 | 171 | >12.8 | > 62.5 | solubility (in words) [2]: lack of solubility
22 | CCCCC(=O)Nc1nc(C(Cl)(Cl)Cl)nc2ccccc12 [Molecule 24, N-(2-Trichloromethylquinazolin-4-yl)pentanamide] | ≤ 2 | 136 |  | 42.3 | solubility (in words) [2]: lack of solubility; EC50 (K1 P. falciparum strain [3]): 1.6 µM
23 | COc1nc(C(Cl)(Cl)Cl)nc2ccccc12 [Molecule 26, 4-Methoxy-2-Trichloromethylquinazoline] | 7.1 | 83 | 5.5 | 39.3 | 
24 | CCOc1nc(C(Cl)(Cl)Cl)nc2ccccc12 [Molecule 27, 4-Ethoxy-2-Trichloromethylquinazoline] | 4.7 | 73 | 10 | 47.1 | 
